The target of assay [1] is T1, TRPA1 (Homo sapiens, UniProt O75762).
T1 construct: host or cells: HEK 293T (transient transfection)
Briefly: Whole-cell patch-clamp, AITC-activated TRPA1 current in transfected HEK 293T cells. In kind it is cell-based. The following applies: 100 µM AITC. The procedure:
Next, we examined the impact of alpha-mangostin on other TRP channels. TRPV4- and TRPA1 trasfected HEK 293T were activated using 300 nM GSK-1016790A (GSK101) and 100 µM allyl isothiocyanate (AITC), respectively. […] The dose–response curves were obtained by applying various concentrations of alpha-mangostin (Figure 2C).
Figure 2 Alpha-mangostin (α-MG) inhibited the TRPV3 current more effectively than other TRP channels. (A) Representative I–V curves from whole-cell recordings illustrate the inhibitory effect of 0.3 µM alpha-mangostin on TRPV4 and TRPA1 channels (GSK101: GSK-1016790A, a TRPV4 agonist; RR: ruthenium red, a TRP inhibitor; AITC: allyl isothiocyanate, a TRPA1 agonist; A967: A-967079, a TRPA1 inhibitor). Currents were elicited with ramp pulses from −100 to +100 mV over 1 s, which were repetitively applied every 20 s; the holding potential was set at 0 mV. (B) Summary of the inhibition percentage after 0.3 µM alpha-mangostin treatment at −100 mV. […]
(§1) In the whole-cell configuration, voltage ramps from −100 to +100 mV over 1 s were applied every 20 s and the holding potential was set at 0 mV. Sampling at 10 kHz and low-pass filtering at 5 kHz (w-c) were applied for all recorded currents. Recorded data were analyzed using Clampfit ver. […]

The target in assay [2] is T2, TRPV3 (G573C) (Homo sapiens, UniProt Q8NET8, G573C).
T2 construct: host or cells: HEK 293T (transient transfection, pEGFP-N1 co-transfected as a marker)
T2 sequence (Q8NET8 1-790 G573C): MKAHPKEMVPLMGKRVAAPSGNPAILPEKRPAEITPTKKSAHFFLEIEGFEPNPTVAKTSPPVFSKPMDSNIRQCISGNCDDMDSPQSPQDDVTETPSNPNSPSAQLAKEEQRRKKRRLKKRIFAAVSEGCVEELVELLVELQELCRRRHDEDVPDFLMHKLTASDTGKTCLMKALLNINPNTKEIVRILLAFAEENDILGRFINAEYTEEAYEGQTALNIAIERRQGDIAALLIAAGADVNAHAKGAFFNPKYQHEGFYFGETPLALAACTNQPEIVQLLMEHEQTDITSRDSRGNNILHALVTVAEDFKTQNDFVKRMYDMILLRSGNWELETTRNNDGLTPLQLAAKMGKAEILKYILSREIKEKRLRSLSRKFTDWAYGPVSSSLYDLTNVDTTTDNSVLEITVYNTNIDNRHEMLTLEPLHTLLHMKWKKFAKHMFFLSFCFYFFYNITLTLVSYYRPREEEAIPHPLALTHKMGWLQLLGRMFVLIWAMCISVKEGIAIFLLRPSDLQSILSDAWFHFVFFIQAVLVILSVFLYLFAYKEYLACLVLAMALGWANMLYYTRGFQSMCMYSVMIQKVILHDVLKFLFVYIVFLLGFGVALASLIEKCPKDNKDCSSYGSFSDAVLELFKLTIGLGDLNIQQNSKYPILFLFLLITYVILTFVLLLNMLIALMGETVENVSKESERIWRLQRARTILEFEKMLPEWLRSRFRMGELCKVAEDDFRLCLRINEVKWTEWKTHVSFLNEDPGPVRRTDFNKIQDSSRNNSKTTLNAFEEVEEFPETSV
Briefly: Whole-cell patch-clamp, spontaneous current of TRPV3 G573C mutant in HEK 293T cells. In kind it is cell-based. As to conditions: −100 mV, read-out: IC50, inhibition of spontaneous current of TRPV3 G573C mutant. The procedure: For electrophysiology recording and calcium measurement, 10 µM 74a (a TRPV3 inhibitor) was added about 6 h after transfection to inhibit channel activities and prevent cell death. First, the electrophysiology activities of the mutations were recorded using a whole-cell patch-clamp. Our data presented spontaneous TRPV3 currents when −100 mV to 100 mV ramp pulses were applied, which dramatically declined with the addition of 1 µM alpha-mangostin (Figure 4A).
Figure 4 Alpha-mangostin inhibited the activity of hyperactive TRPV3 mutant channels and rescued mutation-induced cell death. (A) Alpha-mangostin inhibited the channel current in representative TRPV3 (G573S)- and TRPV3 (G573C)-expressing HEK 293T cells. […] Currents were normalized to the response at −100 mV before adding alpha-mangostin. (C) Alpha-mangostin inhibited TRPV3-mediated intracellular calcium increase in TRPV3 (G573S)-expressing HEK 293T cells. […] The bar graph on the right summarizes the change in the intracellular calcium rise inhibited by alpha-mangostin. […]
as §1
In general terms: Patch clamp records ionic current or voltage across a cell membrane.

T1 sequence (O75762 whole entry, species assumed): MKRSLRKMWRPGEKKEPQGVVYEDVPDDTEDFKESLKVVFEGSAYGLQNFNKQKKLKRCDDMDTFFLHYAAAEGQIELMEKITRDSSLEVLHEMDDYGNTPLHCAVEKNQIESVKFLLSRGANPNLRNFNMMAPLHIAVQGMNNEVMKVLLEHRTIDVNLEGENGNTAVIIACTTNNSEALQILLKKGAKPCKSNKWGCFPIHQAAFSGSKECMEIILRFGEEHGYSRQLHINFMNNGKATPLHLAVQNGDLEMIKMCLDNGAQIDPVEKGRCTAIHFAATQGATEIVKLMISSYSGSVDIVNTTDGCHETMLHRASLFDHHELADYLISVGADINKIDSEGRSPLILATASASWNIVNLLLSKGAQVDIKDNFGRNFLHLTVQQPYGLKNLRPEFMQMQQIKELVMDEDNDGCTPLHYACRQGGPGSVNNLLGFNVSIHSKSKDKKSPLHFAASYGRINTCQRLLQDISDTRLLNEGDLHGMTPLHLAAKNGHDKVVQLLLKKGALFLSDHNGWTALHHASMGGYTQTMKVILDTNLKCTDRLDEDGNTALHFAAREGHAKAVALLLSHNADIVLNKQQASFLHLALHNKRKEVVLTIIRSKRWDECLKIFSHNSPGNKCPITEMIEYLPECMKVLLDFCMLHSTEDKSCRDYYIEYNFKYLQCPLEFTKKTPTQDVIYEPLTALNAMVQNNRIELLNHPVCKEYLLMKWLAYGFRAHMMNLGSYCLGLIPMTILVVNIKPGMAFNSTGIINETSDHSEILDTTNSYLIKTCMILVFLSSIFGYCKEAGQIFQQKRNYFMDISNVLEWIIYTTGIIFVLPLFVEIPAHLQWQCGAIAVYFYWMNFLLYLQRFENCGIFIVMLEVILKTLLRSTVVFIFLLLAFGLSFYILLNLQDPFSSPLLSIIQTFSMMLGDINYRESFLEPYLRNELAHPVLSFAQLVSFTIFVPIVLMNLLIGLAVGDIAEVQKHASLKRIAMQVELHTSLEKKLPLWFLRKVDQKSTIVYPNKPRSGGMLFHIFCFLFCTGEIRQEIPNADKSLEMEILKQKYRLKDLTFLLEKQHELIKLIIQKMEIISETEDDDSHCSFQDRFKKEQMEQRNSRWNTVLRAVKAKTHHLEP

The term inhibition denotes the change of the read-out against control, counted positive when it falls. The IC50 is the concentration needed to halve the response being measured. Take `COc1c(O)cc2oc3cc(O)c(CC=C(C)C)c(O)c3c(=O)c2c1CC=C(C)C` [Alpha-mangostin]: the inhibition at 0.3 µM in assay [1] (HEK-293T, 0.3 µM, −100 mV, read-out: Inhibition percentage of TRPA1 current) amounted to 24.8%. In addition, the IC50 was found to be 5.09 ± 2.21 µM in assay [1] (transfected HEK 293T, read-out: IC50, inhibition of TRPA1 current) and 1940 ± 400 nM in assay [2].

For the origin of these results see PMC10455244, “Alpha-Mangostin: A Potent Inhibitor of TRPV3 and Pro-Inflammatory Cytokine Secretion in Keratinocytes” (International Journal of Molecular Sciences, 2023).
